In US20260345621A1, “GABAA RECEPTOR MODULATORS AND USES THEREOF” (Engrail Therapeutics, Inc., priority 2022, published 2026):
Entries after “also recorded” stand apart in the source; their conditions may differ.

Columns and labels:
[1] = Stability of solutions/suspensions at room temperature; type: physicochemical
Excerpt: The dosage forms provided herein may be prepared and placed in a container for storage at ambient or elevated temperature. […] This is beneficial because transportation of commercially viable dosage forms may benefit from stability at temperatures greater than those requiring refrigeration or sub-freezing environments during transportation and storage at the site of use.

[2] = molecular target: human GABAA receptor α2/β2/γ2 (Homo sapiens, UniProt P18507+P47869); experiment: SyncroPatch platform, PAM mode, GABAA α2/β2/γ2
Sequence of human GABAA receptor α2/β2/γ2 (P47869 29-451): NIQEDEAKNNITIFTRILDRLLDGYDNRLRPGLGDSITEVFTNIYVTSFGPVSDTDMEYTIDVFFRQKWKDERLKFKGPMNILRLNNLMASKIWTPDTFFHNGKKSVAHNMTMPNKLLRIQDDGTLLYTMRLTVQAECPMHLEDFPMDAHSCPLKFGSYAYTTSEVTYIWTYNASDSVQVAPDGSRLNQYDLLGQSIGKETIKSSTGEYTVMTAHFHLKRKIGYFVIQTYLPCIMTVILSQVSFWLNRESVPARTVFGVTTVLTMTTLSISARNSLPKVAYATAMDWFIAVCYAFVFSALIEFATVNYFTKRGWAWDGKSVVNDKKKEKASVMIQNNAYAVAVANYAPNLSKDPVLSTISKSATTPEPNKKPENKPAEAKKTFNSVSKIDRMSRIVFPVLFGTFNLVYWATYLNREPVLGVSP
Sequence of human GABAA receptor α2/β2/γ2 (P18507 40-475): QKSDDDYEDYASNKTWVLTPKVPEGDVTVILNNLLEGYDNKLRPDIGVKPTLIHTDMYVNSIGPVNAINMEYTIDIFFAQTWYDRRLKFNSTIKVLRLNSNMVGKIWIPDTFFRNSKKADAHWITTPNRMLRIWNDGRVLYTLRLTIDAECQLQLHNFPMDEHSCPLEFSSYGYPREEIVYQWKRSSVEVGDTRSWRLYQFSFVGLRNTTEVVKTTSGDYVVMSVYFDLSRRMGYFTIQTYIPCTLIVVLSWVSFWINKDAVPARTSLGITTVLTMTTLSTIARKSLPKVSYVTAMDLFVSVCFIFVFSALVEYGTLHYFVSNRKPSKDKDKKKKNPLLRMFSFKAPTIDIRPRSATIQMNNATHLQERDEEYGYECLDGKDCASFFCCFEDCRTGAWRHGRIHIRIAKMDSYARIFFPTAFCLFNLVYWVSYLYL
Sequence of human GABAA receptor α2/β2/γ2 (P47870 25-512 partner limits assumed): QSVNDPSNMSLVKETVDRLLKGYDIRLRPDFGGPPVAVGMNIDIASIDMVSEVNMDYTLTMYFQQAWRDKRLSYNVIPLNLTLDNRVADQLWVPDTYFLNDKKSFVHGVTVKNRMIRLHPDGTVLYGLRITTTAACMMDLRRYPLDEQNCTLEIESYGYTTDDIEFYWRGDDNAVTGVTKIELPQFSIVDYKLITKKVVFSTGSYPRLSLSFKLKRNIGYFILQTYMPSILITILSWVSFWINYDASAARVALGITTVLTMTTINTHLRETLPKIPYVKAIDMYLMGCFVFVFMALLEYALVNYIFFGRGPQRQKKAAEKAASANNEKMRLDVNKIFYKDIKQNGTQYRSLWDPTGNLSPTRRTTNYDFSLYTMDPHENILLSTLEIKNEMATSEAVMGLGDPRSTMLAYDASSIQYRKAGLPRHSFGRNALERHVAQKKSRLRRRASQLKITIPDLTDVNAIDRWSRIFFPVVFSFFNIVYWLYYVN

[3] = molecular target: human GABAA receptor α1/β3/γ2 (Homo sapiens, UniProt P14867+P18507); experiment: SyncroPatch platform, PAM mode, GABAA α1/β3/γ2
Sequence of human GABAA receptor α1/β3/γ2 (P14867 28-456): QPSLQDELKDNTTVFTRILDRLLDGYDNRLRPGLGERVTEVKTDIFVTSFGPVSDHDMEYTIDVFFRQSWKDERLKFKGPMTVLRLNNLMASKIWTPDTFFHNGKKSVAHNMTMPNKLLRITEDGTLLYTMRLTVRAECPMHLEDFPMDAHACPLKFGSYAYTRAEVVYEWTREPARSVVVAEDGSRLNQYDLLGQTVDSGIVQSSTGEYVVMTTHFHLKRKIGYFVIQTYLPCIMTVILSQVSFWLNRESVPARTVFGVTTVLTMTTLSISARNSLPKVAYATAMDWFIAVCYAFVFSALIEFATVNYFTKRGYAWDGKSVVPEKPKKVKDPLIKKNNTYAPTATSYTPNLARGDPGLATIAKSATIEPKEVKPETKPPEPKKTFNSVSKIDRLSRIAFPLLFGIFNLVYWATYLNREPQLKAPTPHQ
Sequence of human GABAA receptor α1/β3/γ2 (P18507 40-475): as the sequence (P18507 40-475) above
Sequence of human GABAA receptor α1/β3/γ2 (P28472 26-473 partner): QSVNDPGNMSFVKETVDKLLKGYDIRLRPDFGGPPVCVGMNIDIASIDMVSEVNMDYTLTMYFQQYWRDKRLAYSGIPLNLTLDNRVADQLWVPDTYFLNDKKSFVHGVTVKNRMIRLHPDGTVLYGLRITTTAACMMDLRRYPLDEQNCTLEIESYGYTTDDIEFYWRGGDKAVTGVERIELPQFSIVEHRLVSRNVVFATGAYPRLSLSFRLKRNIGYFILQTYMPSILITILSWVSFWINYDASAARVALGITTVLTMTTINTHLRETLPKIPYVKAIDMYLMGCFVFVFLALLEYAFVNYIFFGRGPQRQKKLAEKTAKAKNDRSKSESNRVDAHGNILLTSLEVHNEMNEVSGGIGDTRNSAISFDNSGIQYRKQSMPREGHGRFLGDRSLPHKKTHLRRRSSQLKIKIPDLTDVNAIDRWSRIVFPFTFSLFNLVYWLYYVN

EEG power = experiment: Quantitative electroencephalography (qEEG); type: in vivo, human (healthy volunteers)
Protocol: A clinical study was developed to evaluate safety, tolerability, pharmacokinetics, and pharmacodynamics of Compound 1 at plasma steady-state in 40 healthy human volunteers. Compound 1 (provided as Compound 1 phosphate) was administered to participants as multiple ascending doses of 0.5 mg (N=6), 1.0 mg (N=6), 1.5 mg (N=6), 2.0 mg (N=6), or 5.0 mg (N=6) once daily (QD) for 12 days.
(§1) Pharmacodynamic analyses included the NEUROCART® assessments, cognitive assessments Visual Verbal Learning Task (VVLT), and quantitative electroencephalography (qEEG). All PD analyses were based on the PD Analysis Set. For all PD endpoints, the baseline was calculated as average of the Day −1 measurements.
(§2) NEUROCART®, VVLT, and qEEG assessments were listed and summarized (absolute and change from baseline) using descriptive statistics at baseline and at each post-baseline time point. To establish whether significant treatment effects could be detected on the repeatedly measured NEUROCART® parameters, each parameter was analyzed with a mixed model analysis of covariance (ANCOVA) with treatment, time, and treatment by time as fixed factors, participant as a random factor, and the (average) baseline measurement as a covariate.

CNS function (NEUROCART) = type: in vivo, human (healthy volunteers)
Protocol: (§3) A clinical study was developed to evaluate safety, tolerability, pharmacokinetics, and pharmacodynamics of Compound 1 at plasma steady-state in 40 healthy human volunteers. […].
as §1, §2

[4] = system: memory (Visual Verbal Learning Task); type: in vivo, human (healthy volunteers); settings: oral QD 12 days; dose and day in value
Protocol: as §3, §1, §2

[5] = molecular target: human GABAA receptor α5/β3/γ2 (Homo sapiens, UniProt P18507+P31644); experiment: SyncroPatch platform, PAM mode, GABAA α5/β3/γ2
Sequence of human GABAA receptor α5/β3/γ2 (P31644 32-462): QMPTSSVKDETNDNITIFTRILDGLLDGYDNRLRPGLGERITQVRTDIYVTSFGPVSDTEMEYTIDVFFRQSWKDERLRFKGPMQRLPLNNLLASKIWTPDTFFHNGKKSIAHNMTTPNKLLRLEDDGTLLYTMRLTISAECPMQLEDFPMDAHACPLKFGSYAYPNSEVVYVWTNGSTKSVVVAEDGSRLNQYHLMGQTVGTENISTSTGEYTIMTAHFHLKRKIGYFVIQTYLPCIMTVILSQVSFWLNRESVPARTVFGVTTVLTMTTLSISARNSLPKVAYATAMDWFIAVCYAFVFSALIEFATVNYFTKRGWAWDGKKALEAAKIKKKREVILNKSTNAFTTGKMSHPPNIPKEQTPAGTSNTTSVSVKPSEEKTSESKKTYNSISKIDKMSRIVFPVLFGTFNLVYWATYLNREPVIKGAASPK
Sequence of human GABAA receptor α5/β3/γ2 (P18507 40-475): as the sequence (P18507 40-475) above
Sequence of human GABAA receptor α5/β3/γ2 (P28472 26-473 partner): as the sequence (P28472 26-473 partner) above

[6] = system: anxiety (elevated plus maze); experiment: Elevated plus maze (EPM)
sleep stages = experiment: Sleep-stage analysis in wirelessly implanted rats; settings: Lorazepam 1 mg/kg IP
[7] = participants receiving Compound 1
[8] = oral QD 12 days, dose and day in value

## CC(C)(O)c1cnn2c(-c3ccc(F)c(-c4c(F)cccc4C#N)c3)cnc2n1 [Compound 1, 2′,6-difluoro-5′-(3-(2-hydroxypropan-2-yl)imidazo[1,2-b][1,2,4]triazin-7-yl)-[1,1′-biphenyl]-2-carbonitrile]
[1]; 20 μg/mL
  stability of standard solutions: 6 days
[1]; 0.12 to 7.2 mg/mL
  stability of samples in 0.5% TYLOSE MH 300: 8 days
[2]
  EC50: 0.8 nM
  Emax: 50%
[3]
  Cl- flux / activity at α1 subtype: blocking α1; also recorded: did not drive Cl-flux; also recorded: does not potentiate the α1 GABAA receptor subtype
2.0 mg and 5.0 mg
  moderate somnolence: Two TEAEs of moderate somnolence
5.0 mg
  moderate balance disorder: 1 TEAE of moderate balance disorder
0.5-5.0 mg oral QD 12 days
  concomitant medications or physical examination findings: No consistent differences
  mean QTcF increase: No clinically relevant increase
  severe TEAEs or SAEs: No severe TEAEs or serious adverse events (SAEs) occurred
  suicidal ideation or behaviors (C-SSRS): No positive responses
5/40 participants
  participants with TEAEs of moderate severity: 12.5%
34/40 participants
  participants with TEAEs of mild severity: 85.0%
In 5/40 participants
  number of TEAEs of moderate severity: 6
[7]
  dizziness: 20.0%
  postural dizziness: 30.0%
Pooled placebo
  incidence of somnolence versus placebo: approximately twice as high as the placebo-treated participants
EEG power; any dose level
  EEG gamma-power Pz-O2 (eyes open): No treatment effect on Pz-O2 (eyes open) for any dose level
EEG power; any dose, Day 1 or Day 12
  EEG beta-power Pz-O1 or Pz-O2 (eyes open and closed): No treatment effect on Pz-O1 or Pz-O2 (eyes open and eyes dosed) at any dose on Day 1 or Day 12
EEG power; dose and day in value
  EEG alpha-power Fz-Cz (eyes closed): Significant decrease in Fz-Cz (eyes dosed) at 1.5 mg, 2.0 mg, and 5.0 mg on Day 12
  EEG alpha-power Fz-Cz (eyes open): Significant decrease in Fz-Cz (eyes open) at 1.5 mg on Day 1 and at 1.5 mg, 2.0 mg, and 5.0 mg on Day 12
  EEG alpha-power Pz-O1 (eyes closed): Significant decrease in Pz-O1 (eyes closed) at 1.5 mg on Day 1 and at 1.5 mg, 2.0 mg, and 5.0 mg on Day 12
  EEG alpha-power Pz-O1 (eyes open): Significant decrease in Pz-O1 (eyes open) at 1.5 mg, 2.0 mg, and 5.0 mg on Day 12
  EEG alpha-power Pz-O2 (eyes closed): Significant decrease in Pz-O2 (eyes dosed) at 1.5 mg, 2.0 mg, and 5.0 mg on Day 12
  EEG alpha-power Pz-O2 (eyes open): Significant decrease in Pz-O2 (eyes open) at 1.5 mg, 2.0 mg, and 5.0 mg on Day 12
  EEG beta-power Fz-Cz (eyes closed): Significant increase in Fz-Cz (eyes closed) at 2.0 mg and 5.0 mg on Day 1 but at none of the doses on Day 12
  EEG beta-power Fz-Cz (eyes open): Significant increase in Fz-Cz (eyes open) at 2.0 mg and 5.0 mg on Day 1 and at 0.5 mg, 2.0 mg, and 5.0 mg on Day 12
  EEG delta-power Fz-Cz (eyes closed): Significant decrease in Fz-Cz (eyes closed) at all dose levels on Day 12
  EEG delta-power Fz-Cz (eyes open): Significant decrease in Fz-Cz (eyes open) only at 1.0 mg on Day 12
  EEG delta-power Pz-O1 (eyes closed): Significant decrease in Pz-O1 (eyes closed) at 1.0 mg, 1.5 mg, 2.0 mg, and 5.0 mg on Day 12
  EEG delta-power Pz-O1 and Pz-O2 (eyes open): Significant decrease in Pz-O1 and Pz-O2 (eyes open) at 1.5 mg, 2.0 mg, and 5.0 mg on Day 12
  EEG delta-power Pz-O2 (eyes closed): Significant decrease in Pz-O2 (eyes closed) at all dose levels on Day 12
  EEG gamma-power Fz-Cz (eyes closed and eyes open): Significant increase in Fz-Cz (eyes closed and eyes open) at 2.0 mg on Day 1 and at 2.0 mg and 5.0 mg on Day 12
  EEG gamma-power Pz-O1 (eyes closed and eyes open): Significant decrease in Pz-O1 (eyes dosed and eyes open) at 1.5 mg, 2.0 mg, and 5.0 mg on Day 1
  EEG gamma-power Pz-O2 (eyes closed): No treatment effect on Pz-O2 (eyes closed) for any dose level except for 5.0 mg on Day 12
  EEG theta-power Fz-Cz (eyes closed and eyes open): Significant decrease in Fz-Cz (eyes closed and eyes open) at 1.0 mg, 1.5 mg, 2.0 mg, and 5.0 mg on Day 12
  EEG theta-power Pz-O1 and Pz-O2 (eyes closed and eyes open): Significant decrease in Pz-O1 and Pz-O2 (eyes closed and eyes open) at 1.5 mg, 2.0 mg, and 5.0 mg on Day 12
EEG power; doses >1.5 mg, Day 12
  most consistent effects on qEEG: decreased alpha- and theta-power on Day 12 that were suggestive of dose- or concentration-dependence and target engagement, but the increased beta-power on Day 12 did not suggest dose- or concentration-dependence; also recorded: decreased alpha- and theta-power, and increased beta-power
CNS function (NEUROCART); 1.5 mg Cohort
  consistency of effects on SPV, body sway, VAS perception and feeling high: less consistent effects
CNS function (NEUROCART); oral QD 12 days, any dose, Day 1 or Day 12
  VAS mood or VAS calmness: Did not affect VAS mood or VAS calmness at any dose on either Day 1 or Day 12
CNS function (NEUROCART); [8]
  VAS external perception and VAS internal perception (Bowdle): remained unaffected at 1.0 mg, 2.0 mg, and 5.0 mg but significantly increased at 1.5 mg on Day 1 and Day 12
  VAS feeling high (Bowdle): significantly increased at 0.5 mg on Day 1 and Day 12, and at 1.5 mg on Day 12 with no apparent dose-related effect
  body sway: significantly increased body sway at 5.0 mg on Day 1; also recorded: Significantly increased body sway at the highest dose level of 5.0 mg on Day 1 but not on Day 12; also recorded: significantly increased body sway at 5.0 mg acutely
  left pupil/iris ratio: Significantly reduced left pupil/iris ratio at 1.0 mg, 1.5 mg, and 5.0 mg on Day 1 but not on Day 12
  saccadic reaction time: Significantly increased saccadic reaction time only at the highest dose level of 5.0 mg on Day 1, but not on Day 12
  smooth pursuit eye movements: Significantly decreased smooth pursuit eye movements at 0.5 mg, 1.5 mg, and 5.0 mg on Day 1 but not on Day 12
[4]
  delayed word recognition: Significantly decreased delayed word recognition but not immediate recall or delayed recall at 2.0 mg on Day 12, but not on Day 1
  immediate recall and delayed recall/recognition: Significantly decreased immediate recall and decreased delayed recall/recognition at 5.0 mg on Day 1, but not on Day 12
  reaction time for delayed word recognition: Significantly increased reaction time for delayed word recognition at 1.5 mg on Day 1, but not on Day 12; also recorded: inconsistent effects on reaction time for delayed word recognition up to 1.5 mg
[5]
  EC50: 0.2 nM
  Emax: 96%
[6]; once daily for fourteen days, tested 1 hr after last dose
  anxiolytic effect, chronic dosing: anxiolytic-like in rodents after acute and sub-chronic (14 days) dosing without any loss of effect
[6]; oral
  effect compared with reference anxiolytic chlordiazepoxide: equivalent to what was demonstrated by the reference anxiolytic compound, chlordiazepoxide
[6]; oral, 0.1, 0.3 and 1 mg/kg
  distance traveled in the open arms: increased distance traveled in the open arms
Sleep stages; Compound 1 1 mg/kg PO
  NREM onset: did not change NREM onset; also recorded: does not decrease time to Non-REM onset
Sleep stages; Compound 1 PO
  Active Wake: decreased Active Wake
  NREM: increased NREM
  Quiet Wake: only Compound 1 decreased Quiet Wake
